According to patent US11779565B2, “Small organic molecules for use in the treatment of neuroinflammatory disorders” (THE MEDICAL RESEARCH, INFRASTRUCTURE AND HEALTH SERVICES …, priority 2017, dated 2023):
Entries after “also recorded” stand apart in the source; their conditions may differ.

Experiments:
P19 cells = assay: In vitro differentiation assay of P19 cells (MAP-2 positive neurons); assay type: cell-based, murine; settings: for MAP-2+ cells: day 8; for effect on neuronal phenotype (number of MAP-2+ cells) vs. RA+BMP-2: RA + rhBMP-2 + SM at 0.625, 1.25 and 2.5 μM
Method: P19 cells were grown in a-minimum essential medium (aMEM) (Gibco) containing 7.5% calf serum, 2.5% fetal calf serum, and 0.4 μl/ml penicillin—streptomycin (Gibco), at 37° C., 5% CO2. Cells were replenished with fresh medium every 48 h.
The medium, including RA, BMP supplements and SMs, was replenished after 48 h. After 4 days, aggregates which formed during RA treatment were dispersed enzymatically (0.05% v/v trypsin-0.02% v/v EDTA) and mechanically and plated in tissue culture grade dishes. At this stage, cells were cultured in RA-, BMP- and SM-free medium, which was refreshed every 48 h. MAP-2 positive neurons were examined at day 8 (i.e., day 4 post-RA treatment) by immunofluorescence. Briefly, at day 7, cells were re-cultured in 24 well-plates with cover slips at a final concentration of 5×10^4 cells/well. On day 8, cells were washed with PBS, fixed with PFA 4% for 15 min, permeabilized with 0.5% Triton Tx, blocked with 10% FCS, 0.1% BSA and 0.05% Tween for 30 min, and stained with MAP2 rabbit mAb (1:100, D5G1, Cell Signaling) for 1 hr. The second antibody step was performed by labeling with Alexa Fluor® 488-conjugated IgG antibody to rabbit for 1 h (1:1000; Molecular Probes USA).
Next, the effect of the small molecules on neurogenesis in a P19 differentiation model was measured. […] Neuronal differentiation is marked by the expression of the neuronal marker MAP-2, while the addition of BMP-2 reduces the levels of this marker. Addition of the murine anti-BMP-2/4 monoclonal antibody reverses the effect of BMP-2 and induces acquisition of neuronal phenotype. Thus, the effect of SM1, SM7 and SM9 on the expression of the neuronal marker MAP-2 in P19 cells was examined in the presence of RA and BMP-2. Three concentrations of the molecules were tested: 0.625 μM, 1.25 μM and 2.5 μM.

RR-EAE mice = assay: De novo expression of NeuN (BrdU+NeuN+ cells) in SGZ of RR-EAE mice; assay type: in vivo
Method: FIGS. 12A-12B—The effect of SM1, SM7, SM9 and SM6 on de novo expression of mature neurons marker NeuN in the SGZ. FIG. 12A: immunohistochemical images showing the labeling of BrdU^+NeuN^+ cells in the SGZ. Images were obtained using Olympus 8.1 microscope (magnification×10). FIG. 12B: Quantification of BrdU^+NeuN^+ in the SGZ. Analysis was performed using image J software on 3 sections from each mouse (3 mice from each group, total n=9). Values are given as mean±SEM and the results of Student's t-test are represented as *p<0.05.
RR-EAE induced mice were intraperitoneally injected with 250 μg/mouse (Low-L) or 500 μg/mouse (High-H) of the small molecules SM1, SM7, SM9, SM6, or the corresponding vehicle. The SMs were injected each day starting on day 9 post immunization for 30 days. For immunohistochemical analysis, 3 mice of each group were intraperitoneally injected daily with bromo-2′-deoxyuridine (BrdU) starting from day 9 post immunization for 8 following days.
In this experiment, the amount of BrdU^+NeuN^+ cells in the SGZ of mice was evaluated. FIGS. 12A-12B show immunohistochemical labeling of BrdU^+NeuN^+ cells in mice with EAE that were treated with SMs or vehicle, using Olympus 8.1 microscope (magnification×10).

ATDC5 cells = assay: Cell viability (CellTiter-Glo) in the ATDC5 HTS bioassay; assay type: cell-based; settings: library screening
Method: Poly-L-lysine (Sigma-Aldrich) was added to 384-well plates and was removed after 30 min of incubation at RT. An assay medium containing DMEM/F12, 2% FBS, 100 units/ml penicillin, […] streptomycin (Biological industries) was added to each well. […] ATDC5 cells (Sigma-Aldrich) were harvested, re-suspended in assay medium and added to a final concentration of 2000 cells/well. Finally, heparin (Sigma-Aldrich) was added to a final concentration of 2 μg/ml. The cells were incubated for 48 hours at 37° C. with 5% CO2 in a humidified chamber in the presence or absence of potential small molecule inhibitors of BPM-2. After incubation, ALP levels and cell viability were determined using a completely automated protocol. Cells were washed with PBS, lysed using a lysis buffer containing 0.2% Triton X-100 in PBS supplemented with a protease inhibitor cocktail (Sigma-Aldrich) and incubated for 25 min at RT. ALP level was then determined by addition of CDP-Star® chemiluminescent substrate (Sigma-Aldrich) and measurement of luminescence after incubation for 25 min at RT in the dark. Cell viability was finally determined by addition of CellTiter-Glo® reagent (Biological Industries) and luminescence measurement after 10 min of incubation.
An ATDC5 cell based assay for assessing structure-function relationship of BMP-2 and BMP receptor IA was originally described in Keller et al (Nature Structural & Molecular Biology 2004 11, 481-488). In order to screen a large volume of potential therapeutic agents the ATDC5 cell based bioassay for detecting BMP inhibition was adapted for use in high throughput screening. The bioassay is based on the stimulation of alkaline phosphatase (ALP) production in mouse ATDC5 cells by administration of BMP-2 and heparin, and measurement of ALP levels in the presence of the potential inhibitors. The assay was characterized by the following features: • (a) optimal conditions for HTS automated instruments were found so as to obtain a satisfying gap (i.e. positive Z-prime, above 0.5) between ALP production in the presence of BMP-2, to ALP production in the absence of BMP-2 (no stimulation). • (b) a sensitive method was designed for ALP determination for HTS—namely, the use of CDP-Star® chemiluminescent substrate and luminescence measurement. • (c) both ALP production and cells' viability were measured simultaneously. This was achieved by using CellTiter-Glo® Luminescent Cell Viability Assay for assessing the cells' viability after the luminescent signal by CDP-Star® has faded. […]
A library of small molecules (SM) was screened using the High Throughput Screening bioassay described above. […] The ALP levels and cell viability are shown in FIG. 2 as a percentage of the ALP or viability luminescence levels in the presence of BMP-2 without the SM. […]

[1] = high dose (H) 500 μg/mouse i.p. daily

| Structure (SMILES) | MAP-2+ cells (P19 cells; RA + rhBMP-2 + SM 2.5 μM) | effect on neuronal phenotype (number of MAP-2+ cells) vs. RA+BMP-2 (P19 cells) | BrdU+NeuN+ cells in the SGZ vs. vehicle (RR-EAE mice; [1]) | cytotoxicity in mouse ATDC5 cells (ATDC5 cells) | MAP-2+ cells (P19 cells; RA + rhBMP-2 + SM 1.25 μM) [%] | MAP-2+ cells (P19 cells; RA + rhBMP-2 + SM 0.625 μM (low concentration)) | BrdU+NeuN+ cells in the SGZ vs. vehicle (RR-EAE mice; low dose (L) 250 μg/mouse i.p. daily) |
| --- | --- | --- | --- | --- | --- | --- | --- |
| COC(=O)c1sccc1N/N=C(\C#N)S(=O)(=O)c1cccs1 [SM1, Methyl 3-[(2E)-2-[cyano(thiophen-2-ylsulfonyl)methylidene]hydrazinyl]thiophene-2-carboxylate] | 62.2±3.9% | reversed the effect of BMP-2; also recorded: induced neuronal phenotype at all examined concentrations | significant increased induction | without leading to cytotoxicity | – | – | – |
| O=C(Nc1cccc(C(F)(F)F)c1)c1ccc([N+](=O)[O-])o1 [SM6, N2-[3-(trifluoromethyl)phenyl)-5-nitro-2-furamide] | – | – | – | without leading to cytotoxicity | – | – | – |
| N#Cc1c(O)nsc1Nc1ccccc1C(F)(F)F [SM7, 3-hydroxy-5-[2-(trifluoromethyl)aniline]isothiazole-4-carbonitrile] | No significant effect | reversed the effect of BMP-2; also recorded: induced neuronal phenotype at both the low and the mild concentrations | – | without leading to cytotoxicity | 76.1±3.1 | – | – |
| CS(=O)(=O)c1noc(-c2ccc(Cl)cc2)c1C#N [SM9, 5-(4-chlorophenyl)-3-methylsulfonyl-1,2-oxazole-4-carbonitrile] | 80.6±10.0% | reversed the effect of BMP-2 | trend for increased | without leading to cytotoxicity | 76.4±12.6 | not effective | significant increased induction |
